# B1: p34 protein (construct not stated) (other, UniProt Q9UHV2 1-236, looked up)
# chain: MLSKGLKRKREEEEEKEPLAVDSWWLDPGHTAVAQAPPAVASSSLFDLSVLKLHHSLQQSEPDLRHLVLVVNTLRRIQASMAPAAALPPVPSPPAAPSVADNLLASSDAALSASMASLLEDLSHIEGLSQAPQPLADEGPPGRSIGGAAPSLGALDLLGPATGCLLDDGLEGLFEDIDTSMYDNELWAPASEGLKPGPEDGPGKEEAPELDEAELDYLMDVLVGTQALERPPGPGR
# notes: also called purified p34 protein
# B2: His-tagged p34 (other, UniProt Q9UHV2 1-236, looked up)
# chain: B1 chain
# notes: Expressed in cells and used as lysate; also called His-p34; not shown: His tag
# Key:
# LS1034 = assay: Trypan blue dye cell death, LS1034; assay type: cell-based, human; details: LS1034, per each concentration, 48 hours
# Experimental: (§1) Human breast cancer cell lines MDA-MB-231 were treated with the p34 activity inhibitor Compound 27 per each concentration for 48 hours, and then trypan blue dye and Western blotting were performed. The result is illustrated in FIG. 64.
# (§2) The same experiments were performed using human colorectal cancer cell lines LS1034. The results are illustrated in FIGS. 66 and 67.
# PTEN [1] = assay: PTEN ubiquitination (PTEN immunoprecipitation, ubiquitin Western blotting) in LS1034; assay type: cell-based, human; details: 1 μM, 24 hours
# Experimental: (§3) The p34 activity inhibitor, Compound 27, in a concentration of 1 μM was treated with human breast cancer cell lines MDA-MB-231 and colorectal cancer cell lines LS1034 for 24 hours, and immunoprecipitation was performed using a PTEN antibody. Thereafter, Western blotting was performed using an ubiquitin antibody. The result is illustrated in FIG. 62.
# MDA-MB-231 = assay: Trypan blue dye cell death, MDA-MB-231; assay type: cell-based, human; details: MDA-MB-231, per each concentration, 48 hours
# Experimental: as §1
# PTEN [2] = assay: PTEN lipid phosphatase activity, LS1034; assay type: cell-based, human; details: LS1034, 48 hours, OD 650 nm
# Experimental: (§4) Also, human breast cancer cell lines MDA-MB-231 were treated with p34 activity inhibitor Compound 27 per each concentration for 48 hours, and cell sap was collected and immunoprecipitation was performed using a PTEN antibody. Thereafter, it was reacted with a reaction buffer solution (100 mM Tris-HCl pH8.0, 10 mM DTT) containing water-soluble diC8-phosphatidylinositol 3,4,5 tri-phosphate at 37° C. for 40 minutes, and only the supernatant was collected to be reacted with Biomol Green solution at room temperature for 30 minutes. Then, PTEN lipid phosphatase activity was measured at OD 650 nm. The result is illustrated in FIG. 65.
# as §2
# PTEN [3] = assay: PTEN ubiquitination (PTEN immunoprecipitation, ubiquitin Western blotting) in MDA-MB-231; assay type: cell-based, human; details: 1 μM, 24 hours
# Experimental: as §3
# [4] = tested on: PTEN protein, Akt, caspase3; assay: Western blotting after p34 activity inhibitor, MDA-MB-231; assay type: cell-based, human; details: MDA-MB-231, 48 hours
# Experimental: as §1
# PTEN [5] = assay: PTEN lipid phosphatase activity, MDA-MB-231; assay type: cell-based, human; details: MDA-MB-231, 48 hours, OD 650 nm
# Experimental: as §4
# [6] = tested on: PTEN protein, Akt, caspase3; assay: Western blotting after p34 activity inhibitor, LS1034; assay type: cell-based, human; details: LS1034, 48 hours
# Experimental: as §1, §2
# [7] = target: T1, p34 protein and NEDD4-1 protein (Homo sapiens, UniProt Q9UHV2); assay: GST-pull down of p34 and NEDD4-1 proteins binding; details: 1 mM or 3 mM, 30° C., 1 hour, purified proteins
# T1 construct: made in house; host or cells: E. coli BL-21 (DE3) (printed for GST-p34 in the earlier pull-down)
# T1 sequence (Q9UHV2 1-236): B1 chain
# Experimental: Purified NEDD4-1 protein and p34 protein were treated with a reaction buffer (20 mM Tris-HCl pH7.5, 120 mM NaCl) and the p34 activity inhibitor Compound 27 in a concentration of 1 mM or 3 mM, and reacted at 30° C. for 1 hour. Thereafter, the reaction was stopped using GST-pull down buffer (20 mM Tris-HCl pH8.0, 500 mM NaCl, 1% Triton X-100, 0.02% BSA, 5 mM mercaptoethanol), and then pulled down with glutathione-sepharose beads at 4° C. Western blotting was performed using anti-His and anti-GST antibodies. The result is illustrated in FIG. 63.
# PTEN protein [8] = assay: Western blotting after co-transfection of GFP-tagged p34 and NEDD4-1-siRNA/shRNA, MEF cells; assay type: cell-based, mouse; details: MEF cells co-transfected with GFP-tagged p34; decreased with GFP-tagged p34 alone
# Experimental: (§5) The expression levels of each protein were analyzed using Western blotting. The result is illustrated in FIG. 23.
# PTEN protein [9] = assay: Western blotting after co-transfection of GFP-tagged p34 and NEDD4-1-siRNA/shRNA, 293 cells; assay type: cell-based; details: 293 cells co-transfected with GFP-tagged p34; decreased with GFP-tagged p34 alone
# Experimental: as §5
# GST-PTEN fusion protein [10] = target: T2, GST-PTEN fusion protein (UniProt P60484 1-403); assay: GST pull-down with purified recombinant GST-PTEN, Western blotting (FIG. 8)
# T2 construct: Purified recombinant protein; also called purified recombinant GST-PTEN; not shown: GST tag
# [11] = target: T3, GST-tagged NEDD4-1 mutant lacking WW1 domain (GST-delWW1) (UniProt P46934-4 1-900, limits assumed); assay: GST pull-down of GST-delWW1 with lysate of cells expressing His-p34 (FIG. 10)
# T3 construct: also called NEDD4-1 protein lacking the WW1 domain; not shown: GST tag
# T3 sequence (looked up): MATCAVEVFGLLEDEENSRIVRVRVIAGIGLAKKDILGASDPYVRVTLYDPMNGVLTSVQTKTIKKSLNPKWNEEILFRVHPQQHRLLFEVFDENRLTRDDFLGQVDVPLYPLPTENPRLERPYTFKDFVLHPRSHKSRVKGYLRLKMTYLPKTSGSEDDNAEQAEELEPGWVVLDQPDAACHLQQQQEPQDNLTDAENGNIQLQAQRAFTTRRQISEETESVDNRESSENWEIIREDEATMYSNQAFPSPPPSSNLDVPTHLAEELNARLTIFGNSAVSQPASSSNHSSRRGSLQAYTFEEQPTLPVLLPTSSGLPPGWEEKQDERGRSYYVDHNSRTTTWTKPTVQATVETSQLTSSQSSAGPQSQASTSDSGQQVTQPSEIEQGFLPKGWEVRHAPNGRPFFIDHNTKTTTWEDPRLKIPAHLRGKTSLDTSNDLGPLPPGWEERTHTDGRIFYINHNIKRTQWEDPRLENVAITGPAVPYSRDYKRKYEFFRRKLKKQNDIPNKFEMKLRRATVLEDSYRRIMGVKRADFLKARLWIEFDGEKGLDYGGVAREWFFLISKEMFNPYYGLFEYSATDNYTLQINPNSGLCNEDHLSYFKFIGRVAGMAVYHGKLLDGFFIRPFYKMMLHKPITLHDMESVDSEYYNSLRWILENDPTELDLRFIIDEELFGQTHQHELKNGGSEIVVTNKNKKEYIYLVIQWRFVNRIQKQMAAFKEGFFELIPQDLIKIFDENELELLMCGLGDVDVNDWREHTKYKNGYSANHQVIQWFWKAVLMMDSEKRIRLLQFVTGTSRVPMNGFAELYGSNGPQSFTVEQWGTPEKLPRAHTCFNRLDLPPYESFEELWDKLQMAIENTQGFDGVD
# Experimental: (2) In order to verify the above result, plasmids containing GST-tagged wild-type NEDD4-1 mutants lacking WW1 domain (GST-delWW1) were prepared. The mutant proteins of NEDD4-1 were incubated with a lysing solution isolated from cells expressing His-p34, and then GST-pull down assay was performed. The result is illustrated in FIG. 10.
# GST-PTEN fusion protein [12] = target: T2, GST-PTEN fusion protein; assay: GST pull-down of GST-PTEN with lysate of cells expressing Myc-NEDD4-1 and His-p34 (FIG. 11)
# Experimental: In order to investigate whether p34 affects PTEN and NEDD4-1 binding, GST-PTEN fusion proteins were incubated with the lysing solution of cells expressing Myc-NEDD4-1 and His-p34, and then GST-pull down assay was performed. As a control group, GST proteins were used. The result is illustrated in FIG. 11.
# T2 sequence (P60484 whole entry, the tested form may be a part): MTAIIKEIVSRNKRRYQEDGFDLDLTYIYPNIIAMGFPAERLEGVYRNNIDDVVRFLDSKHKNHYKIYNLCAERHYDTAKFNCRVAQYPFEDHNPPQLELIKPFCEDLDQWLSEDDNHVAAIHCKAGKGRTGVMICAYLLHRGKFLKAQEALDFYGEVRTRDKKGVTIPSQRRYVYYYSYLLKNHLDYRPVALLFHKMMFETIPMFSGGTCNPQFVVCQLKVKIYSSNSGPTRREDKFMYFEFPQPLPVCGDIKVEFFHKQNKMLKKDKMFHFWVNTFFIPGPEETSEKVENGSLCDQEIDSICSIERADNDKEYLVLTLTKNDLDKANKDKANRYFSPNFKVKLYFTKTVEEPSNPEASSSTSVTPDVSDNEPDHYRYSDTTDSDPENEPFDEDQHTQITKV
molecule,measurement,setting,value
Cc1[nH]c2ccc(-c3nnc(OCC(=O)NC(C)c4nc5ccccc5[nH]4)o3)cc2c1C (stereo not drawn) [Compound 27],cell death,LS1034,cell death was induced
same,PTEN ubiquitination,PTEN [1],inhibiting PTEN ubiquitination
same,cell death,MDA-MB-231,cell death was induced
same,PTEN lipid phosphatase activity,PTEN [2],increased PTEN lipid phosphatase activity
same,PTEN ubiquitination,PTEN [3],inhibiting PTEN ubiquitination
same,Akt dephosphorylation,[4],Akt dephosphorylation occurred
same,PTEN protein,[4],reactivated
same,caspase3 activation,[4],caspase3 was activated
same,PTEN lipid phosphatase activity,PTEN [5],increased PTEN lipid phosphatase activity
same,Akt dephosphorylation,[6],Akt dephosphorylation occurred
same,PTEN protein,[6],reactivated
same,caspase3 activation,[6],caspase3 was activated
same,p34 protein and NEDD4-1 protein binding,[7],inhibited the p34 protein and the NEDD4-1 protein binding in a dose dependent manner
"NEDD4-1-siRNA/shRNA: NEDD4-1-siRNA: 5′-TGGCGATTTGTAAACCGAA-3′ (SEQ ID NO 4) (listed as DNA, chemistry not given here)",levels of PTEN protein,PTEN protein [8],remained substantially unchanged
same,levels of PTEN protein,PTEN protein [9],remained substantially unchanged
B1,binding result,GST-PTEN fusion protein [10],no binding
B2,binding result,[11],no binding
same,binding result,GST-PTEN fusion protein [12],no binding

# Reference: patent publication US9752151B2, “Composition for treatment or metastasis suppression of cancers which includes p34 expression inhibitor or activity inhibitor as active ingredient” (THE ASAN FOUNDATION, priority 2013, dated 2017)
